Experimental data: patent publication US6552235B2, “Process for the preparation of cyclohexanol” (Asahi Kasei Kabushiki Kaisha, priority 1999, dated 2003)
Where two headings read alike, the source gives them in different places.

What was measured:
[1] = Solvent conversion rate in batch-wise hydration reaction of cyclohexene (H-ZSM-5 zeolite-A); assay type: physicochemical; settings: 120° C.; for Solvent convertion rate: H-ZSM-5-A, 20 g solvent
Description: The organic solvent used as a reaction solvent in the method of the present invention has a conversion rate of not more than 3% under the hydration reaction conditions of cyclohexene. The conversion rate of the organic solvent in the present invention is a conversion rate in the reaction of the organic solvent per se or the organic solvent with cyclohexene or cyclohexanol per 1 hour of batch reaction at the reaction temperature at which the hydration reaction of cyclohexene is carried out. In industrial working of the present invention, the solvent used for the reaction is separated from the product cyclohexanol and circulated for reuse.
30 g of the resulting H-ZSM-5 zeolite-A catalyst and 81 g of water were charged in a glass autoclave A and heated to 120° C. with stirring under application of a nitrogen pressure of 0.5 MPa. Separately, 61 g of cyclohexene and 20 g of isophorone were charged in a glass autoclave B and heated to 120° C. under application of a nitrogen pressure of 0.6 MPa. Thereafter, the cyclohexene/isophorone mixed liquid was sent under pressure from the glass autoclave B to the glass autoclave A, and the reaction was started. After the reaction for 1 hour, the stirring was stopped, and the oil phase was sampled and analyzed by gas chromatography. At the sampling, the reaction mixture separated to two phases of oil phase and aqueous phase immediately after stopping of stirring. Yield and selectivity of cyclohexanol were as follows.
The hydration reaction of cyclohexene was carried out in the same manner as in Example 1, except that ethylene glycol monophenyl ether, phenethyl alcohol and 3,3,5-trimethylcyclohexanone were respectively used as the reaction solvents. The results of the reactions are shown in Table 1, and characteristics of the organic solvents used in this Example are shown in Table 2.
The reaction was carried out in the same manner as in Example 1, except that benzyl alcohol was used as the solvent. Yield of cyclohexanol after each reaction time was as follows.

[2] = Liquid-liquid distribution coefficient of cyclohexene at 120° C. and solvent effect index; assay type: physicochemical; settings: for Solvent effect index: distribution coefficient in solvent-free system/in solvent-containing system; for Distribution coefficient of cyclohexene: molar fraction in oil phase/aqueous phase, cyclohexene/cyclohexanol/organic solvent/water 56.7/13.3/30/100 by weight
Description: The organic solvent used in the present invention has a solvent effect index (defined below) of not less than 1.5. The solvent effect index in the present invention is defined to be a ratio of a distribution coefficient of cyclohexene in the absence of solvent at 120° C. and a distribution coefficient of cyclohexene in a solvent-containing system at 120° C. (distribution coefficient of cyclohexene in the absence of solvent/distribution coefficient of cyclohexene in a solvent-containing system), and it indicates an effect to make predominate the distribution of cyclohexene into an aqueous solution due to the presence of the organic solvent.
Detailedly, the solvent effect index in the present invention is obtained in the following manner. Cyclohexene/cyclohexanol/organic solvent/water are charged at a weight ratio of 56.7/13.3/30/100, and the distribution coefficient of cyclohexene (molar fraction of cyclohexene in oil phase/molar fraction of cyclohexene in aqueous phase) is obtained from the liquid composition of both phases of the oil phase and the aqueous phase in an equilibrium state kept at 120° C. The ratio of the resulting distribution coefficient of cyclohexene and the distribution coefficient of cyclohexene in a solvent-free system (measured at 120° C. by charging cyclohexene/cyclohexanol/water at a weight ratio of 56.7/13.3/100), namely, the ratio of distribution coefficient in solvent-free system/distribution coefficient in solvent-containing system, is the solvent effect index in the present invention.
Here, the distribution coefficient of cyclohexene is measured by the following method. That is, an oil and water at the above weight ratio are charged in a pressure container under a nitrogen pressure, and sufficiently stirred and mixed at a rising temperature of 120° C., followed by reducing the stirring speed and leaving at rest for a time long enough to reach an equilibrium state. Thereafter, each of the oil phase and the aqueous phase is sampled in a solvent such as 1,4-dioxane, and the compositions of both the oil phase and the aqueous phase are obtained from analysis by gas chromatography and a Karl Fischer moisture meter. Thus, the distribution coefficient of cyclohexene is measured.

[3] = cited from earlier work
[4] = Solvent conversion rate in continuous fixed-bed flowing hydration reaction of cyclohexene; assay type: physicochemical; settings: fixed-bed flow; for Solvent conversion rate: 30 wt % solvent, 124-134° C., 2 MPa
Description: A continuous fixed-bed flowing reaction test of a cyclohexene hydration reaction was conducted under the following conditions using ethylene glycol monophenyl ether (EGMPE) as a reaction solvent. As a reaction apparatus, a stainless steel reaction vessel of 26.5 mm in internal diameter provided with a heating medium jacket was used. In the upper part of the reaction vessel, there were provided feed openings for water and oil, and in the lower part of the reaction vessel, oil and water in the mixed state were led to a reaction mixture storage tank through a pressure regulating valve, and oil and water were separated from each other in the reaction mixture storage tank. ZSM-5 zeolite (silica/alumina molar ratio=50) manufactured by Engelhard Co., Ltd. with addition of 20 wt % of an alumina binder was extrusion molded to a size of 1/16 inch in external diameter and 5 mm in length, and this was used as the catalyst. The height of the catalyst layer was 240 mm. The continuous reaction was carried out by an oil-water falling parallel flow sealing reaction method under the following conditions.
The oil phase discharged into the reaction mixture storage tank was analyzed by gas chromatography to obtain the results of the reaction. At the time of starting of the reaction, only cyclohexene was fed, and after a lapse of 20 hours from the starting of the reaction, the starting material was changed to a mixed liquid of cyclohexene/ethylene glycol monophenyl ether=70/30 (weight ratio), and thereafter the reaction was continued for 150 hours.

[5] = phenol-containing system, 120° C.; solvent-free system 3818; cited from earlier work

| Structure (SMILES) | Solvent convertion rate ([1]; 1 hour) | Solvent effect index [2] | Distribution coefficient of cyclohexene [2] | Solubility in water (25° C.) [3] | also measured |
| --- | --- | --- | --- | --- | --- |
| OCCc1ccccc1 [Phenethyl alcohol] | 0.35% | 2.24 | 1846 | 2.00 g/100 ml | – |
| CC1CC(=O)CC(C)(C)C1 (centres unmarked) [3,3,5-Trimethylcyclohexanone] | 0.00% | 2.14 | 1929 | 0.80 g/100 ml | – |
| OCc1ccccc1 [benzyl alcohol, reference compound] | – | – | – | – | conversion rate of the reaction solvent to dibenzyl ether ([1]; H-ZSM-5 zeolite-A, after 1 hour): 11.4%; conversion rate of the reaction solvent to dibenzyl ether ([1]; H-ZSM-5 zeolite-A, after 2 hours): 16.0% |
| O=C1CCCCC1 [cyclohexanone, reference compound] | – | – | – | – | solubility in water [3]: 8.7% |
| OCCOc1ccccc1 [Ethylene glycol monophenyl ether, ethylene glycol monophenyl ether] | 0.70% | 2.46 | 1681 | 2.70 g/100 ml | Solvent conversion rate ([4]; reaction time 25 Hr): 0.84%; Solvent conversion rate ([4]; reaction time 80 Hr): 0.63%; Solvent conversion rate ([4]; reaction time 150 Hr): 0.42%; conversion rate to ethylene glycol cyclohexylphenyl ether ([4]; under the hydration reaction conditions): less than 1% |
| Oc1ccccc1 [phenol] | – | – | – | – | cyclohexene distribution coefficient (concentration in oil phase mol %/aqueous phase mol %) [5]: 680 |
| CC1=CC(=O)CC(C)(C)C1 [Isophorone] | 0.00% | 2.19 | 1884 | 1.2 g/100 ml | change of the solvent in the hydration reaction ([1]; H-ZSM-5 zeolite-A, 1 hour): showed no change; Solubility in water (25° C.) ([3]; listed as IPN): 1.20 g/100 ml |
